US20230067378A1, “COMPOSITIONS AND METHODS FOR THE TREATMENT OF ESTROGEN-DEPENDENT DISORDERS” (ObsEva S.A., priority 2018, published 2023)

System: pre-menopausal women
Test: uterine bleeding pattern, clinical trial of compound (VI) 200 mg per day (choline salt) with add-back therapy (1.0 mg E2, 0.5 mg norethindrone acetate)
Type: in vivo, human
Description: The experiments described in this example were conducted as part of a single-center, open-label, randomized, parallel-group clinical trial in 32 pre-menopausal women. Following screening assessments, and during the second half of the menstrual cycle, women received norethindrone (5 mg, three-times daily for 10 days) to synchronize menstrual cycles. After menstrual cycle synchronization, subjects were randomized with a 1:1 ratio to one of two treatment arms: (i) a cohort receiving once-daily administration of compound (VI) (200 mg per day, administered in the form of a choline salt) with concurrent onset of add-back therapy administration for 10 weeks (“Concurrent-ABT”), or (ii) a cohort receiving pre-treatment with compound (VI) (200 mg per day, administered in the form of a choline salt) for 4 weeks followed by combined daily administration of compound (VI) and add-back therapy (“Delayed-ABT”). The add-back therapy used in these experiments contained 1.0 mg of E2 and 0.5 mg of norethindrone acetate, and was administered to subjects once daily.
The main treatment outcomes and endpoints measured during these experiments included (i) a qualitative assessment of uterine blood loss, which was recorded on a daily basis throughout the study by characterizing each subject's bleeding pattern using one of the following four categories: “no bleeding,” “spotting” (light staining, dark blood, no sanitary protection needed or only panty liner), “bleeding” (1-4 completely soiled maxi sanitary towels or 1-8 soiled tampons or equivalent combination of the two), or “heavy bleeding” (>4 completely soiled maxi sanitary towels or >8 soiled tampons or equivalent combination of the two); (ii) a bi-weekly assessment of each subject's circulating E2 concentration; (iii) a bi-weekly assessment of each subject's circulating progesterone concentration (measured using a validated commercial chemiluminescence immunoassay method (Elecsys Progesterone III, Roche, Burgess Hill, UK)); (iv) the pharmacokinetic profile of compound (VI) and the add-back therapy; and (v) adverse events.

[1] = Days 29-42, treatment A (Concurrent-ABT), N=14
[2] = Days 29-42, treatment B (Delayed-ABT), N=15
[3] = Days 43-56, Overall (A+B), N=29
[4] = Days 43-56, treatment A (Concurrent-ABT), N=14
[5] = Days 43-56, treatment B (Delayed-ABT), N=15
[6] = Days 57-70, Overall (A+B), N=29
[7] = Days 57-70, treatment A (Concurrent-ABT), N=14
[8] = Days 57-70, treatment B (Delayed-ABT), N=15
[9] = Delayed-ABT cohort, after add-back therapy was initiated in week 5

COc1cc(F)c(-n2c(=O)[nH]c3csc(C(=O)O)c3c2=O)cc1OCc1c(OC)ccc(F)c1F [Compound (VI), 3-[2-fluoro-5-(2,3-difluoro-6-methoxybenzyloxy)4-methoxyphenyl]-2,4-dioxo-1,2,3,4-tetrahydrothieno [3,4d]pyrimidine-5-carboxylic acid]
No Bleeding or Spotting, subjects (n), Plasma Estradiol Level 20-50 pg/mL [1]: 9
No Bleeding or Spotting, subjects (n), Plasma Estradiol Level <20 pg/mL [1]: 1
No Bleeding or Spotting, subjects (n), Plasma Estradiol Level >50 pg/mL [1]: 3
No Bleeding, subjects (%), Plasma Estradiol Level 20-50 pg/mL [1]: (50.0%)
No Bleeding, subjects (%), Plasma Estradiol Level <20 pg/mL [1]: (7.1%)
No Bleeding, subjects (%), Plasma Estradiol Level >50 pg/mL [1]: (21.4%)
No Bleeding, subjects (n), Plasma Estradiol Level 20-50 pg/mL [1]: 7
No Bleeding, subjects (n), Plasma Estradiol Level <20 pg/mL [1]: 1
No Bleeding, subjects (n), Plasma Estradiol Level >50 pg/mL [1]: 3
No Bleeding or Spotting, subjects (%), Plasma Estradiol Level 20-50 pg/mL [2]: (46.7%)
No Bleeding or Spotting, subjects (%), Plasma Estradiol Level <20 pg/mL [2]: (20.0%)
No Bleeding or Spotting, subjects (%), Plasma Estradiol Level >50 pg/mL [2]: (20.0%)
No Bleeding or Spotting, subjects (n), Plasma Estradiol Level 20-50 pg/mL [2]: 7
No Bleeding or Spotting, subjects (n), Plasma Estradiol Level <20 pg/mL [2]: 3
No Bleeding or Spotting, subjects (n), Plasma Estradiol Level >50 pg/mL [2]: 3
No Bleeding, subjects (%), Plasma Estradiol Level 20-50 pg/mL [2]: (33.3%)
No Bleeding, subjects (%), Plasma Estradiol Level <20 pg/mL [2]: (20.0%)
No Bleeding, subjects (%), Plasma Estradiol Level >50 pg/mL [2]: (13.3%)
No Bleeding, subjects (n), Plasma Estradiol Level 20-50 pg/mL [2]: 5
No Bleeding, subjects (n), Plasma Estradiol Level <20 pg/mL [2]: 3
No Bleeding, subjects (n), Plasma Estradiol Level >50 pg/mL [2]: 2
No Bleeding or Spotting, subjects (%), Plasma Estradiol Level 20-50 pg/mL [3]: (51.7%)
No Bleeding or Spotting, subjects (%), Plasma Estradiol Level <20 pg/mL [3]: (13.8%)
No Bleeding or Spotting, subjects (%), Plasma Estradiol Level >50 pg/mL [3]: (17.2%)
No Bleeding or Spotting, subjects (n), Plasma Estradiol Level 20-50 pg/mL [3]: 15
No Bleeding or Spotting, subjects (n), Plasma Estradiol Level <20 pg/mL [3]: 4
No Bleeding or Spotting, subjects (n), Plasma Estradiol Level >50 pg/mL [3]: 5
No Bleeding, subjects (%), Plasma Estradiol Level 20-50 pg/mL [3]: (37.9%)
No Bleeding, subjects (%), Plasma Estradiol Level <20 pg/mL [3]: (10.3%)
No Bleeding, subjects (%), Plasma Estradiol Level >50 pg/mL [3]: (13.8%)
No Bleeding, subjects (n), Plasma Estradiol Level 20-50 pg/mL [3]: 11
No Bleeding, subjects (n), Plasma Estradiol Level <20 pg/mL [3]: 3
No Bleeding, subjects (n), Plasma Estradiol Level >50 pg/mL [3]: 4
No Bleeding or Spotting, subjects (%), Plasma Estradiol Level 20-50 pg/mL [4]: (57.1%)
No Bleeding or Spotting, subjects (%), Plasma Estradiol Level <20 pg/mL [4]: (7.1%)
No Bleeding or Spotting, subjects (%), Plasma Estradiol Level >50 pg/mL [4]: (21.4%)
No Bleeding or Spotting, subjects (n), Plasma Estradiol Level 20-50 pg/mL [4]: 8
No Bleeding or Spotting, subjects (n), Plasma Estradiol Level <20 pg/mL [4]: 1
No Bleeding or Spotting, subjects (n), Plasma Estradiol Level >50 pg/mL [4]: 3
No Bleeding, subjects (%), Plasma Estradiol Level 20-50 pg/mL [4]: (50.0%)
No Bleeding, subjects (%), Plasma Estradiol Level <20 pg/mL [4]: (7.1%)
No Bleeding, subjects (%), Plasma Estradiol Level >50 pg/mL [4]: (21.4%)
No Bleeding, subjects (n), Plasma Estradiol Level 20-50 pg/mL [4]: 7
No Bleeding, subjects (n), Plasma Estradiol Level <20 pg/mL [4]: 1
No Bleeding, subjects (n), Plasma Estradiol Level >50 pg/mL [4]: 3
No Bleeding or Spotting, subjects (%), Plasma Estradiol Level 20-50 pg/mL [5]: (46.7%)
No Bleeding or Spotting, subjects (%), Plasma Estradiol Level <20 pg/mL [5]: (20.0%)
No Bleeding or Spotting, subjects (%), Plasma Estradiol Level >50 pg/mL [5]: (13.3%)
No Bleeding or Spotting, subjects (n), Plasma Estradiol Level 20-50 pg/mL [5]: 7
No Bleeding or Spotting, subjects (n), Plasma Estradiol Level <20 pg/mL [5]: 7
No Bleeding or Spotting, subjects (n), Plasma Estradiol Level >50 pg/mL [5]: 2
No Bleeding, subjects (%), Plasma Estradiol Level 20-50 pg/mL [5]: (26.7%)
No Bleeding, subjects (%), Plasma Estradiol Level <20 pg/mL [5]: (13.3%)
No Bleeding, subjects (%), Plasma Estradiol Level >50 pg/mL [5]: (6.7%)
No Bleeding, subjects (n), Plasma Estradiol Level 20-50 pg/mL [5]: 4
No Bleeding, subjects (n), Plasma Estradiol Level <20 pg/mL [5]: 2
No Bleeding, subjects (n), Plasma Estradiol Level >50 pg/mL [5]: 1
No Bleeding or Spotting, subjects (%), Plasma Estradiol Level 20-50 pg/mL [6]: (48.3%)
No Bleeding or Spotting, subjects (%), Plasma Estradiol Level <20 pg/mL [6]: (20.7%)
No Bleeding or Spotting, subjects (%), Plasma Estradiol Level >50 pg/mL [6]: (13.8%)
No Bleeding or Spotting, subjects (n), Plasma Estradiol Level 20-50 pg/mL [6]: 14
No Bleeding or Spotting, subjects (n), Plasma Estradiol Level <20 pg/mL [6]: 6
No Bleeding or Spotting, subjects (n), Plasma Estradiol Level >50 pg/mL [6]: 4
No Bleeding, subjects (%), Plasma Estradiol Level 20-50 pg/mL [6]: (41.4%)
No Bleeding, subjects (%), Plasma Estradiol Level <20 pg/mL [6]: (20.7%)
No Bleeding, subjects (%), Plasma Estradiol Level >50 pg/mL [6]: (10.3%)
No Bleeding, subjects (n), Plasma Estradiol Level 20-50 pg/mL [6]: 12
No Bleeding, subjects (n), Plasma Estradiol Level <20 pg/mL [6]: 6
No Bleeding, subjects (n), Plasma Estradiol Level >50 pg/mL [6]: 3
No Bleeding or Spotting, subjects (%), Plasma Estradiol Level 20-50 pg/mL [7]: (50.0%)
No Bleeding or Spotting, subjects (%), Plasma Estradiol Level <20 pg/mL [7]: (21.4%)
No Bleeding or Spotting, subjects (%), Plasma Estradiol Level >50 pg/mL [7]: (21.4%)
No Bleeding or Spotting, subjects (n), Plasma Estradiol Level 20-50 pg/mL [7]: 7
No Bleeding or Spotting, subjects (n), Plasma Estradiol Level <20 pg/mL [7]: 3
No Bleeding or Spotting, subjects (n), Plasma Estradiol Level >50 pg/mL [7]: 3
No Bleeding, subjects (%), Plasma Estradiol Level 20-50 pg/mL [7]: (42.9%)
No Bleeding, subjects (%), Plasma Estradiol Level <20 pg/mL [7]: (21.4%)
No Bleeding, subjects (%), Plasma Estradiol Level >50 pg/mL [7]: (21.4%)
No Bleeding, subjects (n), Plasma Estradiol Level 20-50 pg/mL [7]: 6
No Bleeding, subjects (n), Plasma Estradiol Level <20 pg/mL [7]: 3
No Bleeding, subjects (n), Plasma Estradiol Level >50 pg/mL [7]: 3
No Bleeding or Spotting, subjects (%), Plasma Estradiol Level 20-50 pg/mL [8]: (46.7%)
No Bleeding or Spotting, subjects (%), Plasma Estradiol Level <20 pg/mL [8]: (20.0%)
No Bleeding or Spotting, subjects (%), Plasma Estradiol Level >50 pg/mL [8]: (6.7%)
No Bleeding or Spotting, subjects (n), Plasma Estradiol Level 20-50 pg/mL [8]: 7
No Bleeding or Spotting, subjects (n), Plasma Estradiol Level <20 pg/mL [8]: 3
No Bleeding or Spotting, subjects (n), Plasma Estradiol Level >50 pg/mL [8]: 1
No Bleeding, subjects (%), Plasma Estradiol Level 20-50 pg/mL [8]: (40.0%)
No Bleeding, subjects (%), Plasma Estradiol Level <20 pg/mL [8]: (20.0%)
No Bleeding, subjects (%), Plasma Estradiol Level >50 pg/mL [8]: (0.0%)
No Bleeding, subjects (n), Plasma Estradiol Level 20-50 pg/mL [8]: 6
No Bleeding, subjects (n), Plasma Estradiol Level <20 pg/mL [8]: 3
No Bleeding, subjects (n), Plasma Estradiol Level >50 pg/mL [8]: 0
uterine bleeding / amenorrhea (Delayed-ABT cohort, Compound (VI) alone (first 4 weeks), FIG. 1A): amenorrhea in all subjects by week 5
bleeding, frequency [9]: ≤ 8%
spotting, frequency [9]: ≤ 11%
women in amenorrhea within 5 days of treatment (Delayed-ABT group): ~20%
women in amenorrhea (Delayed-ABT group, last 4 weeks of treatment, p=0.03): 40%
Uterine Bleeding Pattern: amenorrhea (Delayed-ABT, Weeks 2-4, achieved in week 5): almost 100% amenorrhea (achieved in week 5)
Uterine Bleeding Pattern: onset of spotting and bleeding (Delayed-ABT, Weeks 6-10): Spotting and bleeding began after 1 week of add-
